Assay results reported in article PMC7316778 (Nature Communications, 2020).
“And” between values parts separate entries of the source, which are not always exact repeats. Equal entries are not always repeated. Where two headings read alike, the source gives them in different places.

What was measured:
PDGFRA (PDGFR alpha) = PDGFRA (PDGFR alpha) (Homo sapiens, UniProt P16234); experiment: SelectScreen kinase assay
Procedure: (§3) Selectivity profiling assays were performed by the Invitrogen SelectScreen™ Services. […] The concentration of ATP was selected to be equal to the KM, unless indicated otherwise.

ULK3 = target: T1, ULK3 (Homo sapiens, UniProt Q6PHR2); experiment: SelectScreen kinase assay
T1 sequence (Q6PHR2 1-472): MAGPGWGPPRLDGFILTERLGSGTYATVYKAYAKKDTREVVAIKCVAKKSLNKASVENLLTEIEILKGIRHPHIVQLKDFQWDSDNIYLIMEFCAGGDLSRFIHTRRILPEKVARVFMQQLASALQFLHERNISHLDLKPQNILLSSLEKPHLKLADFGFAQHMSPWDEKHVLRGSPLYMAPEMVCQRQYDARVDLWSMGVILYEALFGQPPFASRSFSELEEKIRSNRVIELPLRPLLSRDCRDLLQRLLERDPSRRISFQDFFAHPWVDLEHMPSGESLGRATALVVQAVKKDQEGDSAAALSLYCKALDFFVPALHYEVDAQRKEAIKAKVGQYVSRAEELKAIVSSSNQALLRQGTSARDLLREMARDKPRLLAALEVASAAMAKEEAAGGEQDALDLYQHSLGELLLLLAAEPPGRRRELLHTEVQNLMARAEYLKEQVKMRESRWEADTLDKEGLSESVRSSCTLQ
Procedure: as §3

CAMKK2 (CaMKK beta) = CAMKK2 (CaMKK beta) (Homo sapiens, UniProt Q96RR4); experiment: SelectScreen kinase assay
CAMKK2 (CaMKK beta), sequence (Q96RR4 whole entry): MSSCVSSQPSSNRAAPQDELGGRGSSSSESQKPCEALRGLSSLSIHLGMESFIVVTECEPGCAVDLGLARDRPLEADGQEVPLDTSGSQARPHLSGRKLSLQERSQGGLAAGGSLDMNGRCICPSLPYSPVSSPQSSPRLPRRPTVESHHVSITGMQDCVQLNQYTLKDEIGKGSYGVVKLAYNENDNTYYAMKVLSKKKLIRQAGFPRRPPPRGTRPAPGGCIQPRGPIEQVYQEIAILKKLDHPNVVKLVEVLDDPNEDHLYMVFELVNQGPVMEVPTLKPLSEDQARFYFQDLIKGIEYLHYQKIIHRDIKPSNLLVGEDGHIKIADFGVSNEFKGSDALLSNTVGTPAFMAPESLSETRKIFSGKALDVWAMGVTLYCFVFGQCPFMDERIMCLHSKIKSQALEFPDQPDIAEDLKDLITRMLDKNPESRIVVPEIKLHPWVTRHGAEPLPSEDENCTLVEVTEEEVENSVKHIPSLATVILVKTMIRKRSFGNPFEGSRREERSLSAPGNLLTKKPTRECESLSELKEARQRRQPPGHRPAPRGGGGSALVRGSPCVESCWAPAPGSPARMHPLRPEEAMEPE
Procedure: as §3

WT HL-60 cells = experiment: Proliferation ratio during macrophage differentiation; type: cell-based, human; details: Figure 6e
Procedure: (§1) Cells were pretreated with vehicle or WEL028 (100 or 1000 nM, 1 h) prior to induction of differentiation towards monocytes/macrophages with PMA (16 nM, 48 h). Medium was refreshed with growth medium containing WEL028 and PMA after 24 h to maintain full FES inhibition. […] Threshold for CD11b-positive cells was determined using isotype control antibody. […] Kinases with native cysteine at DFG-1 position are shown in bold. All data represent means ± SEM.
(§2) Cell lines were purchased at ATCC (HEK293T: ATCC® CRL-11268™, U2OS: ATCC® HTB-96™, HL-60: ATCC® CCL-240™) and were tested on regular basis for mycoplasma contamination. Cultures were discarded after 2–3 months of use. HEK293T (human embryonic kidney) and U2OS (human osteosarcoma) cells were cultured at 37 °C under 7% CO2 in DMEM containing phenol red, stable glutamine, 10% (v/v) high iron newborn calf serum (Seradigm), penicillin and streptomycin (200 μg/mL each; Duchefa). Medium was refreshed every 2–3 days and cells were passaged two times a week at 80–90% confluence. HL-60 (human promyeloblast) cells were cultured at 37 °C under 5% CO2 in HEPES-supplemented RPMI containing phenol red, stable glutamine, 10% (v/v) fetal calf serum (Biowest), penicillin and streptomycin (200 μg/mL each), unless stated otherwise. Cell density was maintained between 0.2 × 10^6 and 2.0 × 10^6 cells/mL. Cell viability was assessed by Trypan Blue exclusion and quantification using a TC20™ Automated Cell Counter (Bio-Rad).

FES^S700C HL-60 cells = experiment: as above; type: cell-based, human; details: for Proliferation ratio: Figure 6e, S700C
Procedure: as §1, §2

PRKACA (PKA) = PRKACA (PKA) (Homo sapiens, UniProt P17612); experiment: SelectScreen kinase assay
Procedure: as §3

STK32B (YANK2) = STK32B (YANK2) (Homo sapiens, UniProt Q9NY57); experiment: SelectScreen kinase assay
STK32B (YANK2), sequence (Q9NY57 whole entry): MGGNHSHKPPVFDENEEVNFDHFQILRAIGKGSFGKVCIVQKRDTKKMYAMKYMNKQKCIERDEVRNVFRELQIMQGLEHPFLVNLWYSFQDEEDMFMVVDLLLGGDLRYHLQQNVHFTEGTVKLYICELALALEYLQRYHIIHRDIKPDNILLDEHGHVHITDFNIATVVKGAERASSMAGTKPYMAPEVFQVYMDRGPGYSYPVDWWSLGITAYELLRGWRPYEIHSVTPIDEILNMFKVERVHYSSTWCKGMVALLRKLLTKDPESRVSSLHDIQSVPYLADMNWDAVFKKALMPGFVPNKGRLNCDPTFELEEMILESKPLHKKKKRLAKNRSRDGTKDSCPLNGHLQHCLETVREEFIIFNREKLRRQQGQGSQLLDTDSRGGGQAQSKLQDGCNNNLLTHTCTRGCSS
Procedure: as §3

DMPK = DMPK (Homo sapiens, UniProt Q09013); experiment: SelectScreen kinase assay
DMPK, sequence (Q09013 whole entry): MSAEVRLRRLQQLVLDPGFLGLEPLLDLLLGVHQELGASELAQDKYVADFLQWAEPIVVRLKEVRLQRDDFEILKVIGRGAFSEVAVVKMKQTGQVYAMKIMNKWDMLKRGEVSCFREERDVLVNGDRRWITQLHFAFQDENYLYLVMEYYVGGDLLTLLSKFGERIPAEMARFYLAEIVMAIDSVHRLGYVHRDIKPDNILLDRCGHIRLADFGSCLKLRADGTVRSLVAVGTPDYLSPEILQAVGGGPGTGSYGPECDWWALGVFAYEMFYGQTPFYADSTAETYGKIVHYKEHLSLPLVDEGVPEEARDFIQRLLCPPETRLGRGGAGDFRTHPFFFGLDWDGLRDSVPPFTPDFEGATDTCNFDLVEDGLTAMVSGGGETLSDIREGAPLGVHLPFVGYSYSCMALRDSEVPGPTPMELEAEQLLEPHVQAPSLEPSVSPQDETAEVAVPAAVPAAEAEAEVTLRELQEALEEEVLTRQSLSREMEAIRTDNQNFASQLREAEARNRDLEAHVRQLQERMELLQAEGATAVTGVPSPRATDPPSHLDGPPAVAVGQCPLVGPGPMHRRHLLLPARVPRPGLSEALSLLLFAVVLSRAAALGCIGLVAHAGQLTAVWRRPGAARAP
Procedure: as §3

STK38L (NDR2) = STK38L (NDR2) (Homo sapiens, UniProt Q9Y2H1); experiment: SelectScreen kinase assay; details: for Inhibition at 1 µM (%): LanthaScreen Binding
STK38L (NDR2), sequence (Q9Y2H1 whole entry): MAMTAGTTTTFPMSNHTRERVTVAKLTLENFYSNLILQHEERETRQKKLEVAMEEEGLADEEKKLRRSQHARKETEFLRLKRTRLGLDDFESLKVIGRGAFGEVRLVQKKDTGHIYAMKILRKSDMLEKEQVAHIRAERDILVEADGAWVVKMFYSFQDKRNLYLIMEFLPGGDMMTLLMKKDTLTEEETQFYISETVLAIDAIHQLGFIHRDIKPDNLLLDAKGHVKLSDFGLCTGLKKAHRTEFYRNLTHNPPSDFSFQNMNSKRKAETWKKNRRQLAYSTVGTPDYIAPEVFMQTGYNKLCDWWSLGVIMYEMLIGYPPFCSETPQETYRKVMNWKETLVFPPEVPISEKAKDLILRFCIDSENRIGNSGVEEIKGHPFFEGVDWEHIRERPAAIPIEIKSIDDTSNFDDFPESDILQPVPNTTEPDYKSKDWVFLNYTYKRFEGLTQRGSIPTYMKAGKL
Procedure: as §3

DYRK2 = target: T2, DYRK2 (Homo sapiens, UniProt Q92630); experiment: SelectScreen kinase assay; details: for Inhibition at 1 µM (%): DYRK2, LanthaScreen Binding
T2 sequence (Q92630 1-601): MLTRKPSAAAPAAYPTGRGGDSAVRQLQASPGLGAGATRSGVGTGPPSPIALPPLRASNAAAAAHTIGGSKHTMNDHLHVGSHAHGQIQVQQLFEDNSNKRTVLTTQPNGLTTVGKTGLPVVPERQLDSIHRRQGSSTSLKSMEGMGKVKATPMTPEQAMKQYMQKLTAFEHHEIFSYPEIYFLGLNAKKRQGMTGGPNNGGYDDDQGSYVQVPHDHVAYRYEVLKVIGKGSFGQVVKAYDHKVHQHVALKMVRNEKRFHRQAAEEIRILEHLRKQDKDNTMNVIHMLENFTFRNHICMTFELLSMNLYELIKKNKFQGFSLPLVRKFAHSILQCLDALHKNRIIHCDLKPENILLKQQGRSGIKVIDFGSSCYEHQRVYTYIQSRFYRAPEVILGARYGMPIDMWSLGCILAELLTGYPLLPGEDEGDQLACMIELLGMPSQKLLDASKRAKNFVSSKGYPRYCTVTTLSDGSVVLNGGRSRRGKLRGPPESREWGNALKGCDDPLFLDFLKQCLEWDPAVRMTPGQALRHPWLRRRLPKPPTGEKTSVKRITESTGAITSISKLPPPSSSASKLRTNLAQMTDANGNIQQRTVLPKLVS
Procedure: as §3

STK23 (MSSK1) = STK23 (MSSK1) (Homo sapiens, UniProt Q9UPE1); experiment: SelectScreen kinase assay; details: for Inhibition at 1 µM (%): ZLYTE, ATP Km app
STK23 (MSSK1), sequence (Q9UPE1 whole entry): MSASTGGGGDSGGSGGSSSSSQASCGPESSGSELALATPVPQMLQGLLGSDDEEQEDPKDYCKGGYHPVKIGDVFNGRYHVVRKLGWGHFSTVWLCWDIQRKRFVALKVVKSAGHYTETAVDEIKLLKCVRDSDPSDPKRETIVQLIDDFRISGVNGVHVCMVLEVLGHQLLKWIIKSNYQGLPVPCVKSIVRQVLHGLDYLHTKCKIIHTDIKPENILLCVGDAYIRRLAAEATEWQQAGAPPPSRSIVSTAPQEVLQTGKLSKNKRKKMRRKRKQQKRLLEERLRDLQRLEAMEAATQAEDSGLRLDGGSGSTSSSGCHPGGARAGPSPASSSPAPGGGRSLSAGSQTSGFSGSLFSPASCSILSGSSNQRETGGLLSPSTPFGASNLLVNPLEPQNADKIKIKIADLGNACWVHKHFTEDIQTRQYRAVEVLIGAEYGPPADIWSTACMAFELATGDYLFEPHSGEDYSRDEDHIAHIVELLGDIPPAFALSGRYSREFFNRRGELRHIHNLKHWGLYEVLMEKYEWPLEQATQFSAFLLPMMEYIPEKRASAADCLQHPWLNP
Procedure: as §3

[1] = 1 h, 1 μM WEL028, 1 h preincubation
[2] = 1 µM, LanthaScreen Binding, listed as WEL028, 1 µM
[3] = read-out: Inhibition at 1 µM (%), 1 µM, LanthaScreen Binding

PDGFRA (PDGFR alpha), sequence (P16234 24-1089, species assumed): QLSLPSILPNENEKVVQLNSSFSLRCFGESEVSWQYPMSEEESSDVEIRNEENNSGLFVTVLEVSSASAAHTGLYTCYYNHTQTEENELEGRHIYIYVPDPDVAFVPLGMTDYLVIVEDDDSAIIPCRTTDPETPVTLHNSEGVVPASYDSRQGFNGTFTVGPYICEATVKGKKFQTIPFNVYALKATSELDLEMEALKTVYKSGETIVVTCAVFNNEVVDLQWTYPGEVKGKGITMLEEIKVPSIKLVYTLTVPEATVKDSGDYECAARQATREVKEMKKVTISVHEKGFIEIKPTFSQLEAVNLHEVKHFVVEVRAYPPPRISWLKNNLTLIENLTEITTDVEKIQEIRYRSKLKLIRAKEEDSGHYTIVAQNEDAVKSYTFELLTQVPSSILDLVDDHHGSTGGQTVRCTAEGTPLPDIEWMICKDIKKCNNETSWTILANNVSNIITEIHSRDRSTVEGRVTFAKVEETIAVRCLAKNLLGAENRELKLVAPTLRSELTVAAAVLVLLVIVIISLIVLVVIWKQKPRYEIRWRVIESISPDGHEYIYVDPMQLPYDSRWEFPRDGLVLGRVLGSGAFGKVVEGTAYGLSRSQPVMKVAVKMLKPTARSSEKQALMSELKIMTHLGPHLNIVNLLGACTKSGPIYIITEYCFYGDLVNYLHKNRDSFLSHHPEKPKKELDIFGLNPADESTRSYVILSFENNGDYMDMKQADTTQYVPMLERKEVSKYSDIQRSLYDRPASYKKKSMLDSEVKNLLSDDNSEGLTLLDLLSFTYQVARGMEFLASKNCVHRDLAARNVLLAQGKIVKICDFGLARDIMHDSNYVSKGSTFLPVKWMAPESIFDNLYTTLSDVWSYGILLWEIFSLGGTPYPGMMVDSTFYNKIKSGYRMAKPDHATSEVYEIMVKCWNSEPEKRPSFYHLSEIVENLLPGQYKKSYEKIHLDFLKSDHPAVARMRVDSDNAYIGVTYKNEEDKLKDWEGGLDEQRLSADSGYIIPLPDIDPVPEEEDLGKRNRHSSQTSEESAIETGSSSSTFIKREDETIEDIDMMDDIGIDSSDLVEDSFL

C#CCOc1ccc(Nc2ncc(Cl)c(Nc3ccccc3NC(=O)C=C)n2)c(OC)c1 [Compound 6]
IC50 (PDGFRA (PDGFR alpha)): 794 nM
inhibition at 1 µM (PDGFRA (PDGFR alpha); [1]): 63%
inhibition at 10 µM (PDGFRA (PDGFR alpha); 1 h, log[inhibitor] (M) -5.00, ZLYTE, ATP Km app): 90%
inhibition at 3.31 µM (PDGFRA (PDGFR alpha); 1 h, log[inhibitor] (M) -5.48, ZLYTE, ATP Km app): 93%
inhibition at 1.12 µM (PDGFRA (PDGFR alpha); 1 h, log[inhibitor] (M) -5.95, ZLYTE, ATP Km app): 61%
inhibition at 0.372 µM (PDGFRA (PDGFR alpha); 1 h, log[inhibitor] (M) -6.43, ZLYTE, ATP Km app): 22%
inhibition at 0.123 µM (PDGFRA (PDGFR alpha); 1 h, log[inhibitor] (M) -6.91, ZLYTE, ATP Km app): 7%
Apparent fold selectivity (PDGFRA (PDGFR alpha); IC50 on that kinase divided by IC50 on FES^S700C): 184 fold
Inhibition at 1 µM (%) (PDGFRA (PDGFR alpha); PDGFRA (PDGFR alpha), 1 µM, ZLYTE, ATP Km app, listed as WEL028, 1 µM): 58%
inhibition at 1 µM (PDGFRA (PDGFR alpha); read-out: Inhibition at 1 µM (%), PDGFRA (PDGFR alpha), 1 µM, ZLYTE, ATP Km app): 68%
Inhibition (%) (ULK3; 1 μM WEL028, 1 h preincubation): 26%
Inhibition at 1 µM (%) (ULK3; [2]): 27%
inhibition at 1 µM (ULK3; [3]): 25%
inhibition at 1 µM (CAMKK2 (CaMKK beta); 1 h): 23%
inhibition at 1 µM (CAMKK2 (CaMKK beta); read-out: Inhibition at 1 µM (%)): 23%
Proliferation ratio (WT HL-60 cells; WEL028 100 nM): 1.995 and 1.877 and 1.706
Proliferation ratio (WT HL-60 cells; WEL028 1 µM): 2.7225 and 2.805 and 3.0525
Cell proliferation (FES^S700C HL-60 cells; 100 nM WEL028 vs vehicle): decreased to identical levels
Cell proliferation (FES^S700C HL-60 cells; 1 µM WEL028): less pronounced decrease in proliferation
Proliferation ratio (FES^S700C HL-60 cells; WEL028 100 nM): 1.219 and 1.226 and 1.503
Proliferation ratio (FES^S700C HL-60 cells; WEL028 1 µM): 2.372 and 2.5075 and 3.084
inhibition at 1 µM (PRKACA (PKA); [1]): 2%
Inhibition at 1 µM (%) (PRKACA (PKA); PRKACA (PKA), 1 µM, ZLYTE, ATP Km app, listed as WEL028, 1 µM): 4% and -1%
Inhibition at 1 µM (%) (STK32B (YANK2); [2]): 6%
inhibition at 1 µM (STK32B (YANK2); [1]): 7%
inhibition at 1 µM (STK32B (YANK2); [3]): 7%
inhibition at 1 µM (DMPK; [1]): 3%
Inhibition at 1 µM (%) (DMPK; DMPK, 1 µM, LanthaScreen Binding, listed as WEL028, 1 µM): 1% and 5%
Inhibition at 1 µM (%) (STK38L (NDR2)): 2%
Inhibition at 1 µM (%) (STK38L (NDR2); listed as WEL028, 1 µM): 7%
inhibition at 1 µM (STK38L (NDR2); [1]): 5%
inhibition at 1 µM (DYRK2; [1]): 7%
Inhibition at 1 µM (%) (DYRK2): 11%
Inhibition at 1 µM (%) (DYRK2; listed as WEL028, 1 µM): 4%
Inhibition at 1 µM (%) (STK23 (MSSK1)): 2%
Inhibition at 1 µM (%) (STK23 (MSSK1); listed as WEL028, 1 µM): -4%
inhibition at 1 µM (STK23 (MSSK1); [1]): -1%
